In patent publication US7029879B1, “Iodine uptake restoration in thyroid cancer” (University of Kentucky Research Foundation, priority 1999, dated 2006):

Experiments:
[1] = test system: KAT-5 cells (papillary carcinoma); test: Iodide uptake assay (specific 125I uptake), KAT-5; assay type: cell-based, human; note: key: mRNA expression (hNIS, TTF-1, Pax-8): +, positive; −, negative
Procedure: (§1) Cell lines, for evaluation of iodide-uptake and hNIS expression, were grown in phenol-red-free RPMI 1640 with 5% fetal bovine serum (FBS), 100 nM sodium selenite and 0.1 nM bovine TSH (basal medium) (20). They were plated at a density of 3–5×10^4 cells/9.4 cm^2, in triplicate in basal medium, and grown for 2–3 days at 37° C. in 5% CO2. They were treated with dimethylsulfoxide (DMSO, 25 μM daily for 3 days), sodium butyrate (0.5 or 1.0 mM), phenylacetate (pH 7.0, 5 or 10 mM) or 5-azacytidine (0.5 or 1.0 μM, in 25 μM DMSO, daily for 3 days) until control cells were 80% confluent (3–4 days), then changed to fresh basal medium and grown for an additional 24 hrs.
Cell lines, treated with differentiation agents and control cultures, were washed with 2 mL of buffer containing: 10 mM HEPES ([…]), 5.5 mM glucose, 5.4 mM KCl, 1.3 mM CaCl2, 0.4 mM Na2HPO4, 0.44 mM KH2PO4, and either 137 mM NaCl (Buffer A) or 100 mM choline chloride (Buffer B). After a 60 min incubation in the same buffer supplemented with Na(^125I) (1.0 μCi/2 mL) and 1.0 μM NaI, cells were washed once with Buffer A, lysed with 0.1 M NaOH and gamma counted (5). A parallel set of dishes, similarly plated and treated, were used for normalization of uptake activity, using 3-(4,5-dimethylthiazol-2-yl)-2,5-diphenyltetrazolium bromide (MTT) assay (25) as an index of cell viability. Gamma counts of cells incubated in Buffer B were subtracted from counts of cells incubated in Buffer A, under corresponding conditions, to account for non-specific binding of radioiodide.

[2] = test system: hNIS gene regions P (promoter), L (leader), C (coding); test: Methylation-specific PCR of hNIS gene regions in treated cell lines; assay type: cell-based, human; for Methylation Status by Region P: key: mRNA expression (hNIS, TTF-1, Pax-8): +, positive; −, negative
Procedure: as §1
This method utilizes PCR primer pairs to distinguish methylated from unmethylated DNA in bisulfite-modified target DNA, in which bisulfite converts unmethylated cytosines to uracil (23,24). Genomic DNAs, from normal and tumoral human thyroid tissues and cell lines, were isolated by standard techniques (21) and 1.0 μg aliquots were denatured by NaOH (10 min at 37° C.), then treated with 10 mM hydroquinone and 3.0 M sodium bisulfite (pH 5.0 under mineral oil for 16 hrs at 50° C.). Modified DNA was purified on a resin column (Qiagen) and further treated with 0.3 N NaOH for 5 min prior to ethanol precipitation. The PCR mixture contained 16.6 mM ammonium sulfate, 67 mM Tris-HCl (pH 8.8), 6.7 mM MgCl2, 10 mM β-mercaptoethanol, 1.25 mM dNTPs, 0.2 μL TaqStart antibody, 1 U AmpliTaq DNA polymerase, 10 pmoles each of sense and antisense methylation-specific primers, and […] of bisulphite-modified DNA target. Primers used for analysis of the hNIS promoter CpG island methylation were selected for cytosine-rich regions, containing CpG dinucleotides near the 3′ end of the primers, hNIS-MET-P (sense, 5′ to 3′, TTAGGTTTGGAGGCGGA GTCGC (SEQ ID NO. 7) and antisense, 5′ to 3′, ACCGACTATCTATCCCT CTCCCTAAACG) (SEQ ID NO. 8) for a 143 bp product from methylated DNA and hNIS-UNMET-P (sense, 5′ to 3′, […] GAGTTGT (SEQ ID NO. 9) and antisense, 5′ to 3′, […] CCTAAACA) (SEQ ID NO. 10) for a 151 bp product from unmethylated genomic DNA. Additional sets of primers were similarly designed to analyze further downstream elements. They were: hNIS-MET-L (sense, […] (SEQ ID NO. 11) and antisense, GACCT CCATAAAAACGAATACG) (SEQ ID NO. 12) for a 265 bp product, with hNIS-UNMET-L (sense, […] (SEQ ID NO. 13), and antisense, […]) (SEQ ID NO. 14), for a 275 bp product, hNIS-MET-C (sense, […] (SEQ ID NO. 15) and antisense, […]) (SEQ ID NO. 16) for a 242 bp product, and hNIS-UNMET-C (sense, […] (SEQ ID NO. 17), and antisense, […]) (SEQ ID NO. 18), for a 252 bp product. The amplification conditions were: Taq polymerase activation at 95° C. for 5 min, 40 cycles of: denaturation at 94° C. for 20 s, annealing at 60° C. for 30 s and polymerization at 72° C. for 30 s. MS-PCR products were resolved by agarose gel electrophoresis and visualized by ethidium bromide staining and UV transillumination.

[3] = test system: KAT-10 cells; test: Lethality of culture additive in cell culture; assay type: cell-based, human; details: AzaC high, 1.0 μM
Procedure: as §1

[4] = test system: TTF-1 expression and thyroglobulin promoter activity; details: transformed rat thyroid cell line (activated RAS oncogene); cited from earlier work
[5] = high: AzaC 1.0 μM, NaB 1.0 mM, PhAc 10 mM
[6] = low: AzaC 0.5 μM, NaB 0.5 mM, PhAc 5.0 mM
[7] = NPA'87, high: AzaC 1.0 μM, NaB 1.0 mM
[8] = KAT-5, high: AzaC 1.0 μM, PhAc 10 mM

For `CCCC(=O)[O-].[Na+]` [NaB, sodium butyrate], the “Specific ^125I Uptake” value [1, 5] was “−”, the “Specific ^125I Uptake” value [1, 6] was “−” and the “Methylation Status by Region C” value ([2]; KAT-10, high: NaB 1.0 mM) was “+”. For the same compound, the “Methylation Status by Region L” value ([2]; KAT-10, high: NaB 1.0 mM) was “+”, the “Methylation Status by Region P” value ([2]; KAT-10, high: NaB 1.0 mM) was “−” and the “Methylation Status by Region C” value [2, 7] was “+”. For the same compound, the “Methylation Status by Region L” value [2, 7] was “+”, the “Methylation Status by Region P” value [2, 7] was “−” and the “effect on baseline methylation patterns in all three regions” value ([2]; NPA'87 and KAT-10) was “failed to demonstrate effects on altering baseline methylation patterns”.
In the case of `Nc1ncn([C@@H]2O[C@H](CO)[C@@H](O)[C@H]2O)c(=O)n1` [AzaC, 5-azacytidine], the “Lethality of additive concentration for the cell line” value [3] is given as “Lethal additive concentration for this cell line”, the TTF-1 expression [4] is given as “restored” and the thyroglobulin promoter activity [4] is given as “restored”. For the same compound, the “Specific ^125I Uptake” value [1, 5] was “−”, the “Specific ^125I Uptake” value [1, 6] was “−” and the “methylation at the L and C regions after treatment” value ([2]; KAK-1, KAT-5, KAT-10 and NPA'87 (all four cell lines)) was “decreased methylation”. The “Methylation Status by Region C” value ([2]; KAK-1, high: AzaC 1.0 μM) was “−”, the “Methylation Status by Region L” value ([2]; KAK-1, high: AzaC 1.0 μM) was “−” and the “Methylation Status by Region P” value ([2]; KAK-1, high: AzaC 1.0 μM) was “−”. For the same compound, the “Methylation Status by Region C” value ([2]; KAK-1, low: AzaC 0.5 μM) was “−”, the “Methylation Status by Region L” value ([2]; KAK-1, low: AzaC 0.5 μM) was “−” and the “Methylation Status by Region P” value ([2]; KAK-1, low: AzaC 0.5 μM) was “−”. The “Methylation Status by Region C” value [2, 8] was “−”, the “Methylation Status by Region L” value [2, 8] was “−” and the “Methylation Status by Region P” value [2, 8] was “−”. The “susceptibility to demethylation effects in the C region” value ([2]; KAT-5 and KAT-10 cells, C region compared with L region) was “less than that of the L region”, the “Methylation Status by Region C” value ([2]; KAT-10, low: AzaC 0.5 μM) was “−” and the “Methylation Status by Region L” value ([2]; KAT-10, low: AzaC 0.5 μM) was “−”. For the same compound, the “Methylation Status by Region P” value ([2]; KAT-10, low: AzaC 0.5 μM) was “−”, the “effect on methylation status of the P region” value ([2]; MRO87, WRO82 and KAT-7) was “did not affect the baseline demethylated status” and the “demethylation of region C in response to treatment” value ([2]; MRO87, WRO82 and KAT-7, except minimal unmethylated product for WRO82) was “did not become demethylated”. For the same compound, the “Methylation Status by Region C” value [2, 7] was “−”, the “Methylation Status by Region L” value [2, 7] was “−” and the “Methylation Status by Region P” value [2, 7] was “−”.
